Results: ChEMBL document CHEMBL5518189, “Design, synthesis and biological evaluation of 1,2,3-triazole benzothiazole derivatives as tubulin polymerization inhibitors with potent anti-esophageal cancer activities” (Eur J Med Chem, 2024)
The source made the active and inactive calls. No cut-off for these calls is given here.

How the values were obtained:
[1] = system: KYSE-30; assay: Antiproliferative activity against human KYSE-30 cells assessed as inhibition of cell growth measured after 48 hrs by CCK8 method; format: functional, cell-based; conditions: KYSE-30, 48 h
[2] = system: HCT-116; assay: Antiproliferative activity against human HCT-116 cells assessed as inhibition of cell growth measured after 48 hrs by CCK8 method; format: functional, cell-based; conditions: HCT-116, 48 h
[3] = target: T1, Tubulin (Homo sapiens) (UniProt P68371+Q9H4B7+P0DPH7+P68366+Q13509+Q71U36+P04350+Q3ZCM7+P07437+P68363+Q9BQE3+Q6PEY2+Q13885+Q9BVA1+Q9BUF5); assay: Inhibition of tubulin polymerization in human EC109 cells assessed as appearance of multinucleation at 20 to 40 nM incubated for 6 hrs by immunofluorescence staining based fluorescence microscopic analysis; format: cell-based; conditions: dose 20-40 nM
[4] = target: T1, Tubulin (Homo sapiens); assay: Inhibition of tubulin polymerization in human KYSE-30 cells assessed as appearance of multinucleation at 20 to 40 nM incubated for 6 hrs by immunofluorescence staining based fluorescence microscopic analysis; format: cell-based; conditions: dose 20-40 nM
[5] = system: ECa-109 cell line; assay: Antiproliferative activity against human EC109 cells assessed as reduction in cell viability at 70 nM measured after 48 hrs by CCK-8 method relative to control; format: functional
[6] = system: KYSE-30; assay: Antiproliferative activity against human KYSE-30 cells assessed as reduction in cell viability by CCK-8 method; format: functional, cell-based; conditions: time 12-48 hrs, TDE = time-dependent effect
[7] = system: ECa-109 cell line; assay: Antiproliferative activity against human EC109 cells assessed as reduction in cell viability by CCK-8 method; format: functional, cell-based; conditions: time 12-48 hrs, TDE = time-dependent effect
[8] = system: ECa-109 cell line; assay: Inhibition of colony formation in human EC109 cells at 20 to 40 nM incubated for 7 days by crystal violet staining based analysis; format: functional, cell-based; conditions: dose 20-40 nM, time 7.0 day
[9] = system: KYSE-30; assay: Inhibition of colony formation in human KYSE-30 cells at 20 to 40 nM incubated for 7 days by crystal violet staining based analysis; format: functional, cell-based; conditions: dose 20-40 nM, time 7.0 day
[10] = system: KYSE-30; assay: Induction of cell cycle arrest in human KYSE-30 cells assessed as accumulation of cells at G2/M phase at 0 to 40 nM measured after 48 hrs by propidium iodide staining based flow cytometry analysis (reference value: 13.87%); format: functional; conditions: dose 0-40 nM
[11] = system: ECa-109 cell line; assay: Induction of cell cycle arrest in human EC109 cells assessed as downregulation of CDC25C level at 40 to 60 nM measured after 48 hrs by Western blot analysis; format: functional, cell-based; conditions: dose 40-60 nM
[12] = system: ECa-109 cell line; assay: Induction of cell cycle arrest in human EC109 cells assessed as downregulation of Wee1 phosphorylation level at 40 to 60 nM measured after 48 hrs by Western blot analysis; format: functional, cell-based; conditions: dose 40-60 nM
[13] = system: ECa-109 cell line; assay: Induction of cell cycle arrest in human EC109 cells assessed as effect on cyclinB1 level at 40 to 60 nM measured after 48 hrs by Western blot analysis; format: functional, cell-based; conditions: dose 40-60 nM
[14] = system: KYSE-30; assay: Induction of cell cycle arrest in human KYSE-30 cells assessed as downregulation of CDC25C level at 40 to 60 nM measured after 48 hrs by Western blot analysis; format: functional, cell-based; conditions: dose 40-60 nM
[15] = system: KYSE-30; assay: Induction of cell cycle arrest in human KYSE-30 cells assessed as downregulation of CDK1 level at 40 to 60 nM measured after 48 hrs by Western blot analysis; format: functional, cell-based; conditions: dose 40-60 nM
[16] = system: KYSE-30; assay: Induction of cell cycle arrest in human KYSE-30 cells assessed as effect on cyclin B1 level at 40 to 60 nM measured after 48 hrs by Western blot analysis; format: functional, cell-based; conditions: dose 40-60 nM
[17] = system: KYSE-30; assay: Induction of cell cycle arrest in human KYSE-30 cells assessed as upregulation of histone H3phosphorylation level at 40 to 60 nM measured after 48 hrs by Western blot analysis; format: functional, cell-based; conditions: dose 40-60 nM
[18] = system: ECa-109 cell line; assay: Induction of apoptosis in human EC109 cells assessed as increase in total number of apoptotic cells at 40 nM measured after 48 hrs by annexin V-FITC and PI staining based flow cytometry analysis (reference value: 4.93%); format: functional
[19] = system: KYSE-30; assay: Induction of apoptosis in human KYSE-30 cells assessed as increase in total number of apoptotic cells at 40 nM measured after 48 hrs by annexin V-FITC and PI staining based flow cytometry analysis (reference value: 13.77%); format: functional
[20] = system: KYSE-30; assay: Induction of apoptosis in human KYSE-30 cells measured after 48 hrs by annexin V-FITC and PI staining based flow cytometry analysis; format: functional, cell-based; conditions: dose 20-40 nM
[21] = system: KYSE-30; assay: Induction of apoptosis in human KYSE-30 cells assessed as increase in caspase 3 activity at 40 to 100 nM measured after 48 hrs by Western blot analysis; format: functional, cell-based; conditions: dose 40-100 nM
[22] = system: ECa-109 cell line; assay: Induction of apoptosis in human EC109 cells assessed as increase in caspase 3 activity at 40 to 100 nM measured after 48 hrs by Western blot analysis; format: functional, cell-based; conditions: dose 40-100 nM
[23] = system: ECa-109 cell line; assay: Induction of apoptosis in human EC109 cells assessed as increase in cleaved caspase 3 level at 40 to 100 nM measured after 48 hrs by Western blot analysis; format: functional, cell-based; conditions: dose 40-100 nM
[24] = system: ECa-109 cell line; assay: Induction of apoptosis in human EC109 cells assessed as increase in cleaved PARP level at 40 to 100 nM measured after 48 hrs by Western blot analysis; format: functional, cell-based; conditions: dose 40-100 nM
[25] = system: Cell membrane; assay: Induction of mitochondrial membrane depolarization in human KYSE-30 cells at 40 to 60 nM incubated for 24 hrs by flow cytometry analysis; format: cell membranes; conditions: dose 40-60 nM
[26] = system: Cell membrane; assay: Induction of mitochondrial membrane depolarization in human KYSE-30 cells assessed as increase in caspase 9 activity at 40 to 60 nM incubated for 24 hrs by flow cytometry analysis; format: cell membranes; conditions: dose 40-60 nM
[27] = system: ECa-109 cell line; assay: Induction of apoptosis in human EC109 cells assessed as effect on bax level at 40 to 60 nM by flow cytometry analysis; format: functional, cell-based; conditions: dose 40-60 nM
[28] = system: ECa-109 cell line; assay: Induction of apoptosis in human EC109 cells assessed as effect on bak level at 40 to 60 nM by flow cytometry analysis; format: functional, cell-based; conditions: dose 40-60 nM
[29] = system: ECa-109 cell line; assay: Induction of apoptosis in human EC109 cells assessed as downregulation of bcl-2 level at 40 to 60 nM by flow cytometry analysis; format: functional, cell-based; conditions: dose 40-60 nM
[30] = system: ECa-109 cell line; assay: Induction of apoptosis in human EC109 cells assessed as downregulation of XIAP level at 40 to 60 nM by flow cytometry analysis; format: functional, cell-based; conditions: dose 40-60 nM
[31] = system: KYSE-30; assay: Induction of apoptosis in human KYSE-30 cells assessed as effect on Mcl-1 level at 40 to 60 nM by flow cytometry analysis; format: functional, cell-based; conditions: dose 40-60 nM
[32] = system: KYSE-30; assay: Induction of apoptosis in human KYSE-30 cells assessed as downregulation of Bcl-2 level at 40 to 60 nM by flow cytometry analysis; format: functional, cell-based; conditions: dose 40-60 nM
[33] = system: KYSE-30; assay: Induction of apoptosis in human KYSE-30 cells assessed as increase in Noxa expression level at 40 to 60 nM by flow cytometry analysis; format: functional, cell-based; conditions: dose 40-60 nM
[34] = system: ECa-109; assay: Downregulation of YAP level in human EC109 cells incubated for 48 hrs; format: functional, cell-based; conditions: dose 40-80 nM
[35] = system: ECa-109; assay: Effect on MST1 level in human EC109 cells at 40 to 60 nM measured after 48 hrs; format: functional, cell-based; conditions: dose 40-60 nM
[36] = system: ECa-109; assay: Effect on MST2 level in human EC109 cells at 40 to 60 nM measured after 48 hrs; format: functional, cell-based; conditions: dose 40-60 nM
[37] = system: ECa-109; assay: Downregulation of YAP level in human EC109 cells at 60 nM incubated for 48 hrs in presence of MG132; format: functional, cell-based

COc1ccc(CN(C(=O)Cn2cc(CSc3nc4ccccc4s3)nn2)c2cc(OC)c(OC)c(OC)c2)cc1O
IC50 [1]: 42 nM | IC50 [2]: 62 nM | inhibition [3]: Active | inhibition [4]: Active | Activity [5]: >90% | Activity [6]: Tde | Activity [7]: Tde | inhibition [8]: Active | inhibition [9]: Active | Activity [10]: 28.15% | Activity [11]: Active | Activity [12]: Active | Activity [13]: inactive | Activity [14]: Active | Activity [15]: Active | Activity [16]: inactive | Activity [17]: Active | Activity [18]: 31.07% | Activity [19]: 28.56% | Activity [20]: Dose-Dependent Effect | Activity [21]: Active | Activity [22]: Active | Activity [23]: Active | Activity [24]: Active | Activity [25]: Active | Activity [26]: Active | Activity [27]: inactive | Activity [28]: inactive | Activity [29]: Active | Activity [30]: Active | Activity [31]: inactive | Activity [32]: Active | Activity [33]: Active | Activity [34]: Dose-Dependent Effect | Activity [35]: inactive | Activity [36]: inactive | Activity [37]: inactive
